This passage reports inhibition, IC50 and Papp results from publication PMC8767159, “Multiparameter Optimization of Trypanocidal Cruzain Inhibitors With In Vivo Activity and Favorable Pharmacokinetics” (Frontiers in Pharmacology, 2022).

Molecules are shown by their SMILES.

One may read the inhibition as the percentage by which the read-out fell short of the control. Low readings indicate a response near the control, high ones a response far below the control. A word on the IC50: it is the midpoint of a concentration-inhibition curve. As usually defined, the Papp is the rate of passage across a membrane or cell layer, normalised by area and donor concentration. Read a low Papp as poor permeation.

One series deals with rhodesain (Trypanosoma brucei rhodesiense, UniProt Q95PM0). The series can be described thus: Rhodesain fluorescence-based inhibition assay (Z-FR-AMC). Particulars: Table S3; compound 100 µM. In kind it is biochemical. Here is the method:
Rhodesain activity was measured using a fluorescence-based assay as previously described ([Fonseca et al., 2015]). The cleavage rates of the fluorogenic substrate Z-Phe-Arg-aminomethyl coumarin (Z-FR-AMC) were monitored at wavelengths of 340 nm for excitation and 440 nm for emission. All assays were performed in triplicate in a 0.1 M sodium acetate buffer, pH 5.5, with 1 mM beta-mercaptoethanol and 0.01% Triton X-100. The final concentration of rhodesain was 3 nM, and the substrate concentration was 2.5 μM. The cleavage of the substrate was followed by continuous reading for 5 min, and enzyme activity in the presence of 100 μM of each potential inhibitor was calculated based on initial velocity rates compared to DMSO controls. All compounds were tested in triplicate in three independent experiments.

Series [1] deals with T. cruzi intracellular amastigotes. The series can be described thus: Assay against T. cruzi intracellular amastigotes (Tulahuen lacZ strain in HFF-1 fibroblasts). Particulars: Trypanosoma cruzi, HFF-1, 120 h, Table 3, 120 h, mean ± SD of three assays. In kind it is cell-based, Trypanosoma cruzi. The procedure:
Biological assays against T. cruzi intracellular amastigotes were performed as reported previously using the T. cruzi Tulahuen strain, which is genetically engineered to express the E. coli β-galactosidase gene lacZ ([Buckner et al., 1996]). β-Galactosidase catalyzes a colorimetric reaction with chlorophenol red β-D-galactopyranoside (CPRG, Sigma Chemical Co., St. Louis, MO) as the substrate. The assays were conducted in 96-well tissue culture plates, and the compounds to be tested were prepared in 100% DMSO. Epimastigotes were maintained in liver infusion tryptone (LIT) enriched with 10% fetal calf serum (FCS), streptomycin, and penicillin at 28°C. Epimastigotes were converted to trypomastigotes by incubation in Grace’s insect medium (Sigma–Aldrich, St. Louis, MO) enriched with 10% FCS at 28°C. Human HFF-1 fibroblasts were seeded at 2 × 10^3/well in 80 μl of RPMI 1640 without phenol red and incubated overnight at 37°C and 5% CO2. Trypomastigotes were seeded at 1.0 × 10^4/well in 20 μl of RPMI 1640, and the plates were incubated at 37°C and 5% CO2. The next day, the synthesized compounds were added (50 μl) in 3-fold serial dilutions at concentrations ranging from 0.4 to 300 μM, and the plates were incubated at 37°C and 5% CO2. Each compound concentration was assayed in triplicate. After 120 h, 50 μl of chlorophenol red β-D-galactopyranoside (CPRG, Sigma–Aldrich) and IGEPAL CA-630 (Sigma–Aldrich) at a final concentration of 0.1% were added. The absorbance was measured at a wavelength of 570 nm in an automated microplate reader. The data were transferred to SigmaPlot 10.0 (Systat Software Inc., Erkrath, Germany) to determine the IC50 values. Benznidazole (BZ, Sigma–Aldrich) was used as a positive control, and untreated wells (100% parasite growth) were used as negative controls in all plates. All compounds were tested in three independent assays.

Series [2] can be described thus: Parallel artificial membrane permeability assay (PAMPA). In kind it is in vitro ADME. Particulars: PAMPA, Table 3; donor pH 6.5, acceptor pH 7.4, 5 h. Here is the method:
The permeability of the compounds was assessed using the PAMPA method ([Yu et al., 2015]). The test compounds were dissolved in DMSO to a concentration of 5 mM. Next, the compounds were diluted in a stock plate in saline phosphate buffer (PBS), pH 6.5, containing 1% DMSO to a concentration of 1 µM. Then, 300 µl of each test compound was added to the donor plate. Afterward, 200 µl of PBS buffer, pH 7.4, was added to the acceptor plate. The donor plate was attached to the acceptor plate. The assembled acceptor-donor plate was then incubated at 37°C for 5 h under gentle agitation. To analyze the concentration of the compounds by mass spectrometry, two analysis plates (one for the donor and another for the acceptor plate) containing 300 μl of MEOH:ACN 50:50 were prepared. To the donor analysis plate, 90 µl of PBS, pH 6.5, and 10 µl of the content of the donor plate were added. For the acceptor analysis plate, 100 µl of the content of the acceptor plate was added. To monitor any potential decomposition/intrinsic instability of the test compounds in solution, samples from the stock plate were subjected to LC-MS/MS. The compounds that presented Pe ≥ 1.5 × 10^−6 cm/s were classified as permeable, while compounds that presented Pe < 1.5 × 10^−6 cm/s were considered poorly permeable or nonpermeable.
(In general: PAMPA measures passive passage across an artificial lipid membrane.)

A further series concerns the target T1, cruzain (Trypanosoma cruzi, UniProt P25779).
T1 construct: made in house; host or cells: Escherichia coli (strain M15)
The series can be described thus: Cruzain enzyme inhibition assay (cleavage of fluorogenic substrate Z-FR-AMC). In kind it is biochemical. Here is the method: Pro-cruzain truncated at the C-terminus was expressed and purified using a previously described protocol ([Ferreira et al., 2019]). Escherichia coli (strain M15) cultures were grown overnight at 37°C and 200 rpm in Luria Bertani (LB) medium supplemented with ampicillin (100 μg/ml) and kanamycin (50 μg/ml). Next, the cultures were diluted 10-fold in fresh LB medium supplemented with 0.5 M NaCl, 0.2% glucose, 1 mM betaine, 0.5 M sorbitol, 100 μg/ml ampicillin, and 50 μg/ml kanamycin and incubated at 37°C and 200 rpm. At an optical density (OD600) of 0.9, the cultures were incubated at 47°C for 20 min to promote the expression of chaperones. Then, the expression of cruzain was induced by adding isopropyl β-D-thiogalactopyranoside (IPTG) to a final concentration of 0.2 mM, which was followed by overnight incubation of the cultures at 20°C and 200 rpm. Next, the cultures were centrifuged (5,000 rpm, 30 min, 4°C), and the cells were suspended in 50 ml of lysis buffer (300 mM NaCl, 50 mM Tris-HCl, and 1.6 mg/ml lysozyme, pH 8.0) per liter of culture and lysed by sonication (12 cycles of 30 s). This cell lysate was centrifuged (9,000 rpm, 30 min, 4°C), and the supernatant was collected. Cruzain was precipitated by incubation with 35% ammonium sulfate (2 h), and this suspension was centrifuged at 9,000 rpm for 30 min at 4°C. The precipitated cruzain was resuspended in lysis buffer, and the sample was dialyzed to eliminate ammonium sulfate. The soluble fraction of the dialysate was loaded on a Ni−NTA column (Qiagen, Hilden, Germany), and the contaminants were washed using washing buffer (300 mM NaCl, 50 mM Tris-HCl, and 10 mM imidazole, pH 8.0). Cruzain was eluted by applying an increasing imidazole gradient: 25, 50, 75, 100, and 250 mM. The fractions containing cruzain were pooled together and dialyzed against 1.5 L of 0.1 M acetate buffer, pH 5.5, and then concentrated to 0.5 mg/ml. Pro-cruzain was activated by incubation with activation buffer (100 mM sodium acetate, pH 5.5, 10 mM EDTA, 5 mM DTT, and 1 M NaCl) at 37°C. […] After activation, the enzyme was diluted 20-fold in binding buffer (20 mM sodium phosphate and 150 mM NaCl, pH 7.2) and added to thiopropyl Sepharose 6B resin (GE Healthcare Life Sciences, Pittsburgh, PA). After overnight incubation at 4°C, the resin was loaded on a column, and cruzain was eluted with binding buffer supplemented with 20 mM DTT. Fractions containing cruzain were pooled together and stored in 0.1 M sodium acetate, pH 5.5, at −80°C.
Cruzain activity was followed by monitoring the cleavage of the fluorogenic substrate Z-Phe-Arg-aminomethyl coumarin (Z-FR-AMC), as previously described ([Ferreira et al., 2019]), using 96-well flat-bottom black plates and wavelengths of 355 nm for excitation and 460 nm for emission. All cruzain assays were performed in 0.1 M sodium acetate buffer with 5 mM dithiothreitol (DTT) and 0.01% Triton X-100, pH 5.5. […] The cleavage of the substrate was monitored for 5 min, and the activity was calculated based on the initial reaction rates compared with the rate of a DMSO control at 30°C. The IC50 values were independently calculated by considering the rate measurements for at least six inhibitor concentrations, each evaluated in triplicate. To determine the mechanism of cruzain inhibition, eight concentrations of the substrate Z-FR-AMC and four concentrations of the inhibitor were employed, each in triplicate. Kinetic parameters were determined using the SigmaPlot (Systat Software Inc., Erkrath, Germany) enzyme kinetics module. Compounds were tested in two or three independent experiments. All enzyme assays were performed using varying Triton X-100 concentrations (0, 0.01, and 0.1%) ([Ferreira et al., 2009]). Compound concentrations were 100 μM in the single-dose percentage inhibition assays.

T1 sequence (P25779 123-337 limits assumed): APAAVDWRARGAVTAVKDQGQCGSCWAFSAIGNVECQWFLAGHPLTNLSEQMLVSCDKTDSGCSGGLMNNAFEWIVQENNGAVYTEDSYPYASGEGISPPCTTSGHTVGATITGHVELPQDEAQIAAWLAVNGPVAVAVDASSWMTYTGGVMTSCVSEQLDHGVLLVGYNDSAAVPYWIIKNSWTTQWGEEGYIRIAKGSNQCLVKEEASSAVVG
Chain of rhodesain (Q95PM0 entry or part of it): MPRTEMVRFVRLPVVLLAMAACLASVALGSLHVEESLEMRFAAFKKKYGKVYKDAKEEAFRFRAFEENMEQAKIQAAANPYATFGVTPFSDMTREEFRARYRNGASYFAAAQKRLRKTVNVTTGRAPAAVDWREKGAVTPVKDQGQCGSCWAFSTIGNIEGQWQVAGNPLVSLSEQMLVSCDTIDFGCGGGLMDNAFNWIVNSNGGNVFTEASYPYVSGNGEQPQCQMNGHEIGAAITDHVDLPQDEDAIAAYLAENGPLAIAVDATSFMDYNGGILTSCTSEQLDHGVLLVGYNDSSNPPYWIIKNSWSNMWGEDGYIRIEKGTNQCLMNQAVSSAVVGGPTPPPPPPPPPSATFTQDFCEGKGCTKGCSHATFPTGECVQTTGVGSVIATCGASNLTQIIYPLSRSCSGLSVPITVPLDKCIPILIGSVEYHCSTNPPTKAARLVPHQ

As for `O=C(COc1ccc2cc(C(=O)O)ccc2c1)NCCc1nc2ccccc2[nH]1` [Compound 13], the inhibition at 100 µM turned out to be 54% on rhodesain and 89% against cruzain (compound 100 µM, mean of three measures). Further, the IC50 was over 50 µM in series [1] and 24.2 ± 4.5 µM on cruzain (1.5 nM cruzain, 5.0 µM Z-FR-AMC, mean ± SD of 2–3 assays, read-out: IC50 (µM) against cruzain). The compound also displayed a Papp at 5 h, 1 µM in series [2] of 0.83 ×10⁻⁶ cm/s.
